In BindingDB's records for doi:10.1021/jm050680m (Johnson & Johnson Pharmaceutical Research and Development, 2005) one finds IC50 data, which are given here for 5 compounds.

The nature of experiment [1]: Antiproliferative activity against PDGF-BB stimulated HCASMC.
Assay in experiment [2]: as above
The source holds these as a separate data set.

For orientation: IC50 means the concentration that inhibits the measured activity by half. A lower IC50 goes with higher potency. Compound `COc1cc2c(cc1OC)-c1n[nH]c(Nc3cccc(Br)c3)c1C2` [3-bromo-N-(6,7-dimethoxy-2,4-dihydroindeno[1,2-c]pyrazol-3-yl)phenylamine] had a half-maximal inhibitory concentration (IC50) in experiment [1] of 32 nM.
The compound `COC(=O)c1cccc(Nc2[nH]nc3c2Cc2cc(OC)c(OC)cc2-3)c1` [3-carbomethoxy-N-(6,7-dimethoxy-2,4-dihydroindeno[1,2-c]pyrazol-3-yl)phenylamine] returned an IC50 in experiment [2] of 11 nM.
With `COc1cc2c(cc1OC)-c1n[nH]c(Nc3cccc(C(F)(F)F)c3)c1C2` [3-trifluoromethyl-N-(6,7-dimethoxy-2,4-dihydroindeno[1,2-c]pyrazol-3-yl)phenylamine], in experiment [2], the IC50 was determined as 1 nM.
On the same count and under the same terms, with `COc1cccc2c1Cc1c-2n[nH]c1Nc1ccccc1` [(5-methoxy-2,4-dihydroindeno[1,2-c]pyrazol-3-yl)phenylamine] the figure was 487 nM; with `COc1cc2c(cc1OC)-c1n[nH]c(Nc3cccc(F)c3)c1C2` [JNJ-10198409], 3 nM.
